Where two headings read alike, the source gives them in different places.
Key:
[1] = Rat pharmacokinetic evaluation experiment; format: in vivo; conditions: plasma, male SD rats; for AUC: read-out: AUC (exposure)
Text: To determine the drug concentrations in plasma at different times after intravenous and intragastric administration of the test compounds to the rats by using the LC/MS/MS method and using male SD rats as the test animals; To study the pharmacokinetic behaviors of the test compounds in rats and to evaluate the pharmacokinetic characteristics thereof.
Experiment scheme: 10 healthy adult male SD rats were used as experimental animals and divided into 4 groups according to the principle of similar body weight, with 2 in each group of the group IV (two groups) and 3 in each group of the group PO (two groups). The animals were purchased from Beijing Vital River Laboratory Animal Technology Co., Ltd.
Group IV: an appropriate amount of samples were weighed; an appropriate amount of DMSO, PEG400 and water were added successively thereto according to the volume ratio of 10:60:30; and stirring was performed under sonication to reach a clear state of 1.5 mg/mL.
Group PO: an appropriate amount of samples were weighed; an appropriate amount of DMSO, PEG400 and water were added successively thereto according to the volume ratio of 10:60:30; and stirring was performed under sonication to reach a clear state of 1.0 mg/mL.
After fasting overnight, each rat in the group IV was administered intravenously with a volume of 2 mL/kg and a dose of 3 mg/kg; each rat in the group PO was administered intragastrically with a volume of 10 mL/kg and a dose of 10 mg/kg.
After each of the male SD rats in the group IV was administrated with the test compounds, 200 ul of blood samples were collected at 0.0833, 0.25, 0.5, 1, 2, 4, 6, 8 and 24 hours, and were placed in a commercial anticoagulation tube pre-loaded with EDTA-K2. After each rat in the group PO was administrated with the test compounds, 200 ul of blood samples were collected at 0.25, 0.5, 1, 2, 4, 6, 8 and 24 hours respectively, and were placed in a commercial anticoagulation tube pre-loaded with EDTA-K2. The test tube was centrifuged for 15 minutes to separate the plasma and stored at −60° C. 2 hours after administration, the animals can be fed. The content of the test compounds in plasma was determined by the LC/MS/MS method after intravenous and intragastric administration to the rats. The linear range of the method was from 2.00 to 6000 nM; plasma samples were analyzed after treatment of precipitating proteins by acetonitrile.
Note: Cl: clearance rate; Vd: volume of distribution; AUC: exposure; T1/2: half-life; Cmax: maximum compound concentration after oral administration; Tmax: time to reach Cmax; F: bioavailability.

[2] = test system: human non-small cell lung cancer NCI-H358; experiment: In vivo drug efficacy test (2): subcutaneous xenograft tumor model; parameters: species or system BALB/c nude mice; conditions: 100 mg/kg (0-6 days) + 50 mg/kg (7-20 days)
Procedure: (§1) To evaluate the in vivo efficacy of the test compounds in a subcutaneous xenograft tumor model of human non-small cell lung cancer NCI-H358.
BALB/c nude mice, female, 6-8 weeks old, weighing 18-21 grams. A total of 100 were required. They were provided by Shanghai Lingchang Experimental Animal Co., Ltd ( ? ? ). NCI-H358 tumor cells were resuspended in PBS to prepare 0.1 mL (5×10^6) of cell suspension, which was inoculated subcutaneously on the right back of each mouse (5×10^6/mouse) to wait for tumor growth. When the average tumor volume reached about 150-200 mm^3, randomized grouping and administration were performed, and the administration dose was shown in Table 6. The diameter of the tumor was measured with vernier calipers twice a week. The formula for calculating the tumor volume is: V=0.5a×b^2, wherein a and b represent the long and short diameters of the tumor, respectively. The tumor suppressive effect of the compounds was evaluated by TGI (%). TGI (%) reflects the tumor growth inhibition rate. Calculation of TGI (%): TGI (%)=[(1−(average tumor volume at the end of administration in a treatment group−average tumor volume at the beginning of administration in the treatment group))/(average tumor volume at the end of treatment in the solvent control group−average tumor volume at the beginning of treatment in the solvent control group)]×100%.

[3] = test system: human pancreatic cancer x-MIA-PaCa2 cell; experiment: In vivo drug efficacy test (3): subcutaneous xenograft tumor model; parameters: species or system NU/NU mice; conditions: 50 mg/kg
Procedure: To evaluate the in vivo efficacy of the test compounds in a subcutaneous xenograft tumor model of human pancreatic cancer x-MIA-PaCa2 cell.
NU/NU mice, female, 6-8 weeks old, weighing 17-20 grams. A total of 100 were required (additional 30% of animals were inoculated). They were provided by Beijing Vital River Science and Technology Co., Ltd. Each mouse was subcutaneously inoculated with 0.2 mL (10×10^6) of x-MIA-PaCa2 cells (plus matrigel, with the volume ratio being 1:1) on the right back. When the average tumor volume reached about 150 mm^3, grouping and administration were performed, and the administration dose was shown in Table 7. The diameter of the tumor was measured with vernier calipers twice a week. The formula for calculating the tumor volume is: V=0.5a×b^2, wherein a and b represent the long and short diameters of the tumor, respectively. The tumor suppressive effect of the compounds was evaluated by TGI (%). TGI (%) reflects the tumor growth inhibition rate. Calculation of TGI (%): TGI (%)=[(1−(average tumor volume at the end of administration in a treatment group−average tumor volume at the beginning of administration in the treatment group))/(average tumor volume at the end of treatment in the solvent control group−average tumor volume at the beginning of treatment in the solvent control group)]×100%.

[4] = test system: human non-small cell lung cancer NCI-H358; experiment: In vivo drug efficacy test (4): subcutaneous xenograft tumor model; parameters: species or system BALB/c nude mice; conditions: for TGI: day 27
Procedure: as §1
BALB/c nude mice, female, 6-8 weeks old, weighing 18-20 grams. A total of 40 were required. They were provided by Shanghai Lingchang Experimental Animal Co., Ltd ( ? ? ). NCI-H358 tumor cells were resuspended in PBS to prepare a cell suspension with a density of 5×10^7/mL, which was inoculated subcutaneously on the right back of each mouse (0.1 mL, 5×10^6/mouse) to wait for tumor growth. When the average tumor volume reached about 166 mm^3, randomized grouping and administration were performed, and the administration dose was shown in Table 8. The diameter of the tumor was measured with vernier calipers twice a week.
The formula for calculating the tumor volume is: V=0.5a×b^2, wherein a and b represent the long and short diameters of the tumor, respectively. The tumor suppressive effect of the compounds was evaluated by TGI (%). TGI (%) reflects the tumor growth inhibition rate. Calculation of TGI (%): TGI (%)=[(1−(average tumor volume at the end of administration in a treatment group−average tumor volume at the beginning of administration in the treatment group))/(average tumor volume at the end of treatment in the solvent control group−average tumor volume at the beginning of treatment in the solvent control group)]×100%.

[5] = 50 mg/kg (0-2 days) + 1.5 mg/kg (3-27 days)

C=CC(=O)N1CCN(c2ncnc3c(=O)n(-c4c(N)c(Cl)cc(Cl)c4F)c(C(F)(F)F)cc23)CC1 [Example 49]
AUC ([1]; IV 3 mg/kg): 4.62 µM·h | clearance ([1]; IV 3 mg/kg, read-out: Cl (clearance rate)): 20.6 mL/min/kg | half-life ([1]; IV 3 mg/kg, read-out: T1/2 (half-life) (converted)): 0.94 h | Vd ([1]; IV 3 mg/kg, read-out: Vd (volume of distribution)): 2.15 L/kg | Cmax ([1]; PO 10 mg/kg): 2110 nM | Tmax ([1]; PO 10 mg/kg): 1.67 h | AUC ([1]; PO 10 mg/kg): 7.74 µM·h | bioavailability ([1]; PO 10 mg/kg, read-out: F (bioavailability)): 52% | Tumor volume (day 20) [2]: 30 mm^3 | TGI ([2]; day 20): 125.66% | Tumor volume (day 14) [3]: 204 mm^3 | TGI ([3]; day 14): 96.77% | Tumor volume (day 27) ([4]; 5 mg/kg): 117 mm^3 | TGI ([4]; 5 mg/kg): 107.25% | Tumor volume (day 27) ([4]; 15 mg/kg): 56 mm^3 | TGI ([4]; 15 mg/kg): 116.27% | Tumor volume (day 27) [4, 5]: 295 mm^3 | TGI [4, 5]: 80.92%

Reference: patent publication US11453667B2, “Pyridone-pyrimidine derivative acting as KRASG12C mutein inhibitor” (MEDSHINE DISCOVERY INC., priority 2018, dated 2022)
